Assays:
[1] = target: T1, Tyrosine-protein phosphatase non-receptor type 6 (Homo sapiens, UniProt P29350)
Description: Inhibition of SHP1 (unknown origin) using pNPP as substrate by spectrophotometry

[2] = target: T2, Tyrosine-protein phosphatase non-receptor type 1 (Homo sapiens, UniProt P18031); experiment: Inhibition of purified recombinant PTP1B catalytic domain (unknown origin) using pNPP as substrate by spectrophotometry
T2 sequence (P18031 whole entry): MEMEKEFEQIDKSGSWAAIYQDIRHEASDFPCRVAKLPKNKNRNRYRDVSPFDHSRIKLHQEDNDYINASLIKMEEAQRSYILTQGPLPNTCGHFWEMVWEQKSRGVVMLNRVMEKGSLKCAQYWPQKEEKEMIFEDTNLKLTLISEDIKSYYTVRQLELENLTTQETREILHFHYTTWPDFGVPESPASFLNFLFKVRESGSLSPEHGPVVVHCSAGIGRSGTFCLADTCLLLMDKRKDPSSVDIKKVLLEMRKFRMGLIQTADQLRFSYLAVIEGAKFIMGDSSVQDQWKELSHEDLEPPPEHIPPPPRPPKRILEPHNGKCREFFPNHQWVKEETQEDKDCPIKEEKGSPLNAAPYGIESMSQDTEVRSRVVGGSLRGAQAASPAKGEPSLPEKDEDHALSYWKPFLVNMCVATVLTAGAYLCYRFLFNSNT

[3] = system: A549; experiment: Cytotoxicity against human A549 cells by SRB assay; format: functional, cell-based
[4] = target: T3, Tyrosine-protein phosphatase non-receptor type 2 (Homo sapiens) (UniProt P17706); experiment: Inhibition of TC-PTP (unknown origin) using pNPP as substrate at 20 ug/ml by spectrophotometry
T3 sequence (whole entry): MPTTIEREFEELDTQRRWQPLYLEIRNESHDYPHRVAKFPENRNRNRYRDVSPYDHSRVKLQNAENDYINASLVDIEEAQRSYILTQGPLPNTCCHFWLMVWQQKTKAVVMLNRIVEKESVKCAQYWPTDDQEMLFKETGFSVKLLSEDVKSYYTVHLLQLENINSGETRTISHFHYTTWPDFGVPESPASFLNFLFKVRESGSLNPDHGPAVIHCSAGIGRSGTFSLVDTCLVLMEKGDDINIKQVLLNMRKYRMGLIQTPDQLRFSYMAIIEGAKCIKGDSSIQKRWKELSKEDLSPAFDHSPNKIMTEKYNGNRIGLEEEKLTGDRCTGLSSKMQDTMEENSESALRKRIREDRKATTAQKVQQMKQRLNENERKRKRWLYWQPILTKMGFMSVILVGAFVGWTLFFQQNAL

[5] = target: Receptor-type tyrosine-protein phosphatase F (Homo sapiens) (UniProt P10586); experiment: Inhibition of LAR (unknown origin) using pNPP as substrate at 20 ug/ml by spectrophotometry
[6] = Cytotoxicity against human HL60 cells by SRB assay; format: functional, cell-based; conditions: HL-60
[7] = target: T4, M-phase inducer phosphatase 2 (Homo sapiens) (UniProt P30305); experiment: Inhibition of CDC25B (unknown origin) using pNPP as substrate at 20 ug/ml by spectrophotometry
T4 sequence (whole entry): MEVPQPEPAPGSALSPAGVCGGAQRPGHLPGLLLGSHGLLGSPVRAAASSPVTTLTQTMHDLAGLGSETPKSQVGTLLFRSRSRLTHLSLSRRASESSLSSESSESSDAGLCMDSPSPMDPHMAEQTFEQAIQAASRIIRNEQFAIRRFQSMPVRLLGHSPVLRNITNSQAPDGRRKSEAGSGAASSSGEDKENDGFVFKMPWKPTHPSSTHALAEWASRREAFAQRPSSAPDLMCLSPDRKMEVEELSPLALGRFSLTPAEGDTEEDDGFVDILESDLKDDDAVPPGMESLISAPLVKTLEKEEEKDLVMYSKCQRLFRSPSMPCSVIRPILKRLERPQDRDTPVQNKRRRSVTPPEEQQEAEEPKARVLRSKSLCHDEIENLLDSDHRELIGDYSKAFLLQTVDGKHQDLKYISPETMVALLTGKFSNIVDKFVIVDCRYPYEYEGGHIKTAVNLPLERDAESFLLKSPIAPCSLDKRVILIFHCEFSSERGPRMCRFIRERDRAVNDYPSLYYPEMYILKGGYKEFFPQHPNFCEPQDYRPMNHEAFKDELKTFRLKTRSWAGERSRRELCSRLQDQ

[8] = target: T1, Tyrosine-protein phosphatase non-receptor type 6; experiment: Inhibition of SHP1 (unknown origin) using pNPP as substrate at 20 ug/ml by spectrophotometry
[9] = target: T5, Tyrosine-protein phosphatase non-receptor type 11 (Homo sapiens) (UniProt Q06124); experiment: Inhibition of SHP2 (unknown origin) using pNPP as substrate at 20 ug/ml by spectrophotometry
T5 sequence (whole entry): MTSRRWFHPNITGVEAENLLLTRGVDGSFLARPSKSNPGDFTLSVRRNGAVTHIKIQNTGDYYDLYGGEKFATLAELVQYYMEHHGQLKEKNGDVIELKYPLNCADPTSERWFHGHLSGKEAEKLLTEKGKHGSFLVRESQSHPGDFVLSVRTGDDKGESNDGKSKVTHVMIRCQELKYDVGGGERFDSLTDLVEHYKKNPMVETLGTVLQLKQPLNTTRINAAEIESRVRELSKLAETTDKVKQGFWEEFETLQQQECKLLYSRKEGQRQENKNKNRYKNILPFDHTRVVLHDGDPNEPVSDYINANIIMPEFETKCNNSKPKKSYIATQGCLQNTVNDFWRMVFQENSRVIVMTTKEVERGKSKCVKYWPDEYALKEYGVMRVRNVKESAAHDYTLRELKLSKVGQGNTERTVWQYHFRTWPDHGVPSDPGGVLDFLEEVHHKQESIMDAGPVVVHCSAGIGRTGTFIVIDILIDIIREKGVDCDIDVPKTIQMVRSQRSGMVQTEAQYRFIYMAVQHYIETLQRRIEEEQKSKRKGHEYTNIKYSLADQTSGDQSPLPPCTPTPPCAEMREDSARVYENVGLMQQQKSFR

[10] = system: SH-SY5Y; experiment: Neuroprotective activity against amyloid beta(25 to 35)-induced cell damage in human SH-SY5Y cells assessed as increase in cell viability preincubated at 10 uM 2 hrs prior to challenge by MTT assay relative to control; format: functional
[11] = target: T6, Tyrosine-protein phosphatase non-receptor type 2 (Homo sapiens, UniProt P17706); experiment: Inhibition of TC-PTP (unknown origin) using pNPP as substrate by spectrophotometry
T6 sequence (P17706 whole entry): T3 sequence (whole entry)

[12] = target: T7, M-phase inducer phosphatase 2 (Homo sapiens, UniProt P30305); experiment: Inhibition of CDC25B (unknown origin) using pNPP as substrate by spectrophotometry
T7 sequence (P30305 whole entry): T4 sequence (whole entry)

T1 sequence (P29350 whole entry, the tested form may be a part): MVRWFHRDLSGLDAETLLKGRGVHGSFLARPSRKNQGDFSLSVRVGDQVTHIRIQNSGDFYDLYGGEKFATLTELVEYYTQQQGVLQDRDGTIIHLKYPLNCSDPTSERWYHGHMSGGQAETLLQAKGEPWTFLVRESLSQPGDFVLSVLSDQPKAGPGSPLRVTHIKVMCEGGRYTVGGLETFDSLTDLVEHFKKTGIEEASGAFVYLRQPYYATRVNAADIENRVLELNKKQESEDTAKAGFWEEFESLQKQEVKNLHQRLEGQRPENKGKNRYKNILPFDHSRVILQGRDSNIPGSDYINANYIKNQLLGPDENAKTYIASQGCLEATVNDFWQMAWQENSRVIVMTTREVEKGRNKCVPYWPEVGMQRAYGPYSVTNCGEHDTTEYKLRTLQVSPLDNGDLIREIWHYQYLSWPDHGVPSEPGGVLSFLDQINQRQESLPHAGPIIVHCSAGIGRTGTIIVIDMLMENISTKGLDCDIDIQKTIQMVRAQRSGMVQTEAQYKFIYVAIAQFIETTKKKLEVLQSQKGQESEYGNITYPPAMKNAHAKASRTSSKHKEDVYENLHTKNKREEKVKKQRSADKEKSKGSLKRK
Chain of Receptor-type tyrosine-protein phosphatase F (Homo sapiens) (P10586 whole entry): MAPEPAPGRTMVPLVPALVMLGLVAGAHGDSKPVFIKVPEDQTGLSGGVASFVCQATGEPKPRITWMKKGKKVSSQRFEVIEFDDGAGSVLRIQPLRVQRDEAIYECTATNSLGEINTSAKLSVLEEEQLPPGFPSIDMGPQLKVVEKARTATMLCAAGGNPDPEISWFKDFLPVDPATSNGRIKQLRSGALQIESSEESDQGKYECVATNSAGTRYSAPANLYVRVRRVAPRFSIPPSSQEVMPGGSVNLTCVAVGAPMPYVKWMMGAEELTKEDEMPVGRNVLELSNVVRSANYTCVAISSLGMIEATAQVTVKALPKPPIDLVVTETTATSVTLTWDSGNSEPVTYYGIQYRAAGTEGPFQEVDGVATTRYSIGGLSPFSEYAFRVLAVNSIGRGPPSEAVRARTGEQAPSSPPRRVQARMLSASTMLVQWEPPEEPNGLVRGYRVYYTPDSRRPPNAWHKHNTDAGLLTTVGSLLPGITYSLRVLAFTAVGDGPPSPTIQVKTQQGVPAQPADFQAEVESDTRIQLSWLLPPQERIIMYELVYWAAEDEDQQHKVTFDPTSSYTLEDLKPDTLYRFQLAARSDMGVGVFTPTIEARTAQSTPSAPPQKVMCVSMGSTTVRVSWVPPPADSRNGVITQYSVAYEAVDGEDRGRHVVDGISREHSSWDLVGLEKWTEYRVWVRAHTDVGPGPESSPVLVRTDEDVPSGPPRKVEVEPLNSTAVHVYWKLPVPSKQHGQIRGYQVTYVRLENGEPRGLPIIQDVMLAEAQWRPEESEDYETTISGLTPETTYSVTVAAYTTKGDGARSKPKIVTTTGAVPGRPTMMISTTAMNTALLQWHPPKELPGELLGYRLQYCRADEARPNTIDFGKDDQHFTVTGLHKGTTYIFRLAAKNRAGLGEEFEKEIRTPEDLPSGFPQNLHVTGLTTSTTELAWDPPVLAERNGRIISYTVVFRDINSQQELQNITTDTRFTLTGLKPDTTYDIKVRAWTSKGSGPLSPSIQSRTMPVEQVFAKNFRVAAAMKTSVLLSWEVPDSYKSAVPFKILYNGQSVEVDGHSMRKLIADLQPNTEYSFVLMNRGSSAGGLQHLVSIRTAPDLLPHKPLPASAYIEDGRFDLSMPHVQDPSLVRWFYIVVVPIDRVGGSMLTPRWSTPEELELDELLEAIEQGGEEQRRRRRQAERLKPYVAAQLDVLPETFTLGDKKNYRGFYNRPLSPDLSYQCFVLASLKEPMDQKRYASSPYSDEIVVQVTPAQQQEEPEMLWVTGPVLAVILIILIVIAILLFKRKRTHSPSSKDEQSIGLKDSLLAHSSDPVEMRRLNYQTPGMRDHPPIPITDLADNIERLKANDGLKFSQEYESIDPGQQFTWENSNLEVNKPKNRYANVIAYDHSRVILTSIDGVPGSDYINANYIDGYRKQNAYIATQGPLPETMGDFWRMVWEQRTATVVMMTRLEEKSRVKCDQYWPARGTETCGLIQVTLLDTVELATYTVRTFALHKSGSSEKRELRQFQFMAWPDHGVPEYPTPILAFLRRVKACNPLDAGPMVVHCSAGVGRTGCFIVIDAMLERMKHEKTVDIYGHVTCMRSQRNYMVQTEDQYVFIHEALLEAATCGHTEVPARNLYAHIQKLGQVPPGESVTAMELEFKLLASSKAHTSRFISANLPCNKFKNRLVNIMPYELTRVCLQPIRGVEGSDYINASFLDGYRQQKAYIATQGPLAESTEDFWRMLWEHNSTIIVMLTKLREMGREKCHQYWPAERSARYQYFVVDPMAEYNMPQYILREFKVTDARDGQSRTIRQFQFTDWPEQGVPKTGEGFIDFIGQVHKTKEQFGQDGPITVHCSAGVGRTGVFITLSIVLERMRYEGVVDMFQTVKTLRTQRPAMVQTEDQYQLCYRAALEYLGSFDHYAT

IC50 [2] [µM] | inhibition [4] [%] | inhibition [5] [%] | inhibition [7] [%] | inhibition [8] [%] | inhibition [9] [%] | Compound | IC50 [1] [µM] | IC50 [3] [µM] | IC50 [6] [µM] | Activity [10] [%] | IC50 [11] [µM] | IC50 [12] [µM]
– | – | – | – | – | – | SODIUM ORTHOVANAD | 16.5 | – | – | – | – | –
32.6 | < 50 | < 50 | < 50 | < 50 | < 50 | C/C(=C\CO)CCC[C@H](C)CCC[C@H](C)CCCC(C)C [TRANS-PHYTOL] | – | > 100 | > 100 | – | – | –
– | – | – | – | – | – | O=C(O[C@@H]1Cc2c(O)cc(O)cc2O[C@@H]1c1cc(O)c(O)c(O)c1)c1cc(O)c(O)c(O)c1 [EPIGALOCATECHIN GALLATE] | – | – | – | 16.57 | – | –
– | – | – | – | – | – | CC1=CC(=O)OC1CC[C@H](C)CCC[C@H](C)CCCC(C)C (stereo not given in full) | – | – | 49.3 | – | – | –
50 | < 50 | < 50 | < 50 | < 50 | < 50 | CC(C)C(=O)/C=C/[C@@H](C)[C@H]1CC[C@H]2[C@@H]3CC=C4C[C@@H](O)CC[C@]4(C)[C@H]3CC[C@]12C | – | > 100 | > 100 | 15.98 | – | –
11 | < 50 | < 50 | < 50 | < 50 | < 50 | CC1=C(C)C(=O)[C@@]2(CC[C@@](C)(CCC[C@H](C)CCC[C@H](C)CCCC(C)C)O2)[C@@](C)(O)C1=O | – | > 100 | > 100 | 13.85 | – | –
2.3 | – | < 50 | – | < 50 | < 50 | CC1=C(CCC(=O)OC/C=C(\C)CCC[C@H](C)CCC[C@H](C)CCCC(C)C)C(=O)NC1=O | – | > 100 | > 100 | – | 12.6 | 42.9
– | – | – | – | – | – | COc1cccc2c1C(=O)c1c(O)c3c(c(O)c1C2=O)C[C@@](O)(C(=O)CO)C[C@@H]3O[C@H]1C[C@H](N)[C@H](O)[C@H](C)O1 [DOXORUBICIN] | – | – | 0.123 | – | – | –
– | – | – | – | – | – | CC(=O)[C@]1(O)C(C)=C(C)C(=O)[C@@]12CC[C@](C)(CCC[C@H](C)CCC[C@H](C)CCCC(C)C)O2 | – | > 100 | 67.4 | – | – | –
3.8 | < 50 | < 50 | < 50 | < 50 | < 50 | CC(=O)/C(=C/C[C@@H](C)[C@H]1CC[C@H]2[C@@H]3CC=C4C[C@@H](O)CC[C@]4(C)[C@H]3CC[C@]12C)C(C)C | – | > 100 | > 100 | 11.31 | – | –
50 | < 50 | < 50 | < 50 | < 50 | < 50 | CC(=O)OC/C=C(\C)CCC[C@H](C)CCC[C@H](C)CCCC(C)C | – | > 100 | > 100 | – | – | –

Compound | IC50 [2] [µM] | inhibition [4] [%] | inhibition [5] [%] | inhibition [7] [%] | inhibition [8] [%] | inhibition [9] [%] | IC50 [1] [µM] | IC50 [3] [µM] | IC50 [6] [µM] | Activity [10] [%] | IC50 [11] [µM] | IC50 [12] [µM]
CC1=C(C)C(=O)C(CC[C@](C)(O)CCC[C@H](C)CCC[C@H](C)CCCC(C)C)=C(C)C1=O | 3.85 | – | < 50 | – | < 50 | < 50 | – | 85.3 | 45 | – | 35.1 | 23.2
CC1(C)CC[C@]2(C(=O)O)CC[C@]3(C)C(=CC[C@@H]4[C@@]5(C)CC[C@H](O)C(C)(C)[C@@H]5CC[C@]43C)[C@@H]2C1 [OLEANOLIC_ACID] | – | – | < 50 | – | < 50 | < 50 | – | – | – | – | – | 0.98
C=C[C@](O)(CC[C@@H](C)[C@H]1CC[C@H]2[C@@H]3CC=C4C[C@@H](O)CC[C@]4(C)[C@H]3CC[C@]12C)C(C)C | 41.7 | < 50 | < 50 | < 50 | < 50 | < 50 | – | > 100 | > 100 | – | – | –
C=C[C@@](O)(CC[C@@H](C)[C@H]1CC[C@H]2[C@@H]3CC=C4C[C@@H](O)CC[C@]4(C)[C@H]3CC[C@]12C)C(C)C | 10.3 | < 50 | < 50 | < 50 | < 50 | < 50 | – | > 100 | > 100 | – | – | –
